In general, MIC refers to the lowest concentration that inhibits growth of the organism. Higher therefore signals a need for much substance.

In brackets after ≈: the same amount, converted by molar mass.

From patent publication US5556979A, “7-isoindolinyl-naphthyridone derivatives, compositions and anti-bacterial use thereof” (Bayer Aktiengesellschaft, priority 1992, dated 1996) come the findings set out here.

Holding throughout (experiment): Minimum inhibitory concentration (MIC), serial dilution on Iso-Sensitest agar
Type in all cases: cell-based

For one test, the system named is E. coli Neumann. To be noted: Escherichia coli, 37° C., about 20 hours. On the procedure:
(§1) The minimum inhibitory concentrations (MIC) were determined by means of serial dilution methods on Iso-Sensitest agar (Oxoid). For each substance to be tested, a series of agar plates was prepared which contained concentrations of the active compound which decreased by a double dilution on each occasion. The agar plates were inoculated with a Multipoint inoculator (Denley). For the inoculation, overnight cultures of the pathogens were used which had previously been diluted so that each inoculation spot contained about 10^4 colony-forming particles. The inoculated agar plates were incubated at 37° C. and the organism growth was recorded after about 20 hours. The MIC value (μg/ml) indicates the lowest concentration of active compound at which no growth could be detected with the naked eye.

Test [1] deals with Entercoccus faecalis 27 101. To be noted: 37° C., about 20 hours. As to the method:
as §1

In test [2] the test system is Enterobacter cloacae 2427. To be noted: 37° C., about 20 hours. As to the method: as §1
The test system of a further test is Klebsiella sp. 8085. To be noted: 37° C., about 20 hours. On the procedure: as §1
A further test concerns Micrococcus luteus 9341. To be noted: 37° C., about 20 hours. As to the method: as §1
Another test relates to Morganella morg. 932. To be noted: 37° C., about 20 hours. As to the method:
as §1

In the next test the test system is Providencia sp. 12012. To be noted: 37° C., about 20 hours. As to the method: as §1
The subject of test [3] is Pseudomonas aeruginosa Walter. To be noted: 37° C., about 20 hours. On the procedure: as §1
The subject of test [4] is Staphylococcus aureus 1756. To be noted: 37° C., about 20 hours. As to the method:
as §1

Test [5] concerns Staphylococcus aureus ICB 25701. To be noted: ICB25701, 37° C., about 20 hours. As to the method:
as §1

As for `CN[C@@H]1CC=C[C@@H]2CN(c3c(F)cc4c(=O)c(C(=O)O)cn(C5CC5)c4c3F)C[C@H]21` (relative stereo) [Example 22, (1'SR,2'RS,6'SR)-1-Cyclopropyl-6,8-difluoro-1,4-dihydro-7-(2'-methylamino-8'-azabicyclo[4.3-0]non-4'-en-8'-yl)-4-oxo-3-quinolinecarboxylic acid], the MIC against E. coli Neumann stood at 0.03 µg/mL (≈ 0.0722 µM); in test [1], 0.03 µg/mL (≈ 0.0722 µM); in test [2], 0.125 µg/mL (≈ 0.301 µM); in the test with Klebsiella sp. 8085, 0.06 µg/mL (≈ 0.144 µM); in the test on Micrococcus luteus 9341 it was 0.125 µg/mL (≈ 0.301 µM); against Morganella morg. 932, 0.125 µg/mL (≈ 0.301 µM). Further, the minimal inhibitory concentration (MIC) is 0.125 µg/mL (≈ 0.301 µM) against Providencia sp. 12012, 2 µg/mL (≈ 4.81 µM) in test [3], at most 0.015 µg/mL in [4] and 0.125 µg/mL (≈ 0.301 µM) in test [5].
Regarding `N[C@@H]1CC=C[C@@H]2CN(c3cc4c(cc3F)c(=O)c(C(=O)O)cn4C3CC3)C[C@@H]12` (relative stereo) [Example 6, (1'SR,2'RS,6'SR)-7-(2'-amino-8'-azahicyclo[4.3.0]non-4'-en-8'-yl)-1-cyclopropyl-6-fluoro-1,4-dihydro-4-oxo-3-quinolinecarboxylic acid], the minimum inhibitory concentration (MIC) is at most 0.015 µg/mL with E. coli Neumann; 0.03 µg/mL (≈ 0.0782 µM) in [1]; 0.06 µg/mL (≈ 0.156 µM) in test [2]; 0.03 µg/mL (≈ 0.0782 µM) in the test with Klebsiella sp. 8085; 0.06 µg/mL (≈ 0.156 µM) in the test with Micrococcus luteus 9341; 0.03 µg/mL (≈ 0.0782 µM) in the test on Providencia sp. 12012. The MIC is 0.5 µg/mL (≈ 1.3 µM) in test [3], at most 0.015 µg/mL in [4] and 0.125 µg/mL (≈ 0.326 µM) in test [5].
On to `Nc1c(F)c(N2C[C@H]3[C@H](N)CC=C[C@@H]3C2)c(F)c2c1c(=O)c(C(=O)O)cn2C1CC1` (relative stereo) [Example 19, (1 'SR,2 'RS,6 'SR)-5-Amino-7-(2 '-amino-8 '-azabicyclo[4.3.0]non-4'-en-8'-yl)-1-cyclopropyl-6,8-difluoro-1,4-dihydro-4-oxo-3-quinolinecarboxylic acid], for which the minimal inhibitory concentration (MIC) is at most 0.015 µg/mL in the test with E. coli Neumann; at most 0.015 µg/mL in [1]; 0.03 µg/mL (≈ 0.072 µM) in [2]; 0.03 µg/mL (≈ 0.072 µM) in the test on Klebsiella sp. 8085; 0.06 µg/mL (≈ 0.144 µM) in the test on Micrococcus luteus 9341; 0.03 µg/mL (≈ 0.072 µM) with Morganella morg. 932. Besides, the minimum inhibitory concentration (MIC) in the test on Providencia sp. 12012 was at most 0.015 µg/mL; in test [3], 1 µg/mL (≈ 2.4 µM); in test [4] it was at most 0.015 µg/mL; in test [5], 0.03 µg/mL (≈ 0.072 µM).
Take `Nc1cccc2c1CN(c1c(F)cc3c(=O)c(C(=O)O)cn(C4CC4)c3c1F)C2` [*, 7-(4-amino-1,3-dihydro-isoindol-2-yl)-1-cyclopropyl-6,8-difluoro-1,4-dihydro-4-oxo-3-quinolinecarboxylic acid, reference compound]: the MIC is 0.5 µg/mL (≈ 1.26 µM) in the test on E. coli Neumann; 0.5 µg/mL (≈ 1.26 µM) in test [1]; 4 µg/mL (≈ 10.1 µM) against Klebsiella sp. 8085; 1 µg/mL (≈ 2.52 µM) with Morganella morg. 932; 1 µg/mL (≈ 2.52 µM) against Providencia sp. 12012; over 128 µg/mL in test [3]. The minimal inhibitory concentration (MIC) in test [4] turned out to be 0.03 µg/mL (≈ 0.0755 µM).
As to `N[C@@H]1CC=C[C@@H]2CN(c3c(F)cc4c(=O)c(C(=O)O)cn(C5CC5)c4c3Cl)C[C@@H]12` (relative stereo) [Example 12, (1'SR,2'RS,6'SR)-7-(2'-Amino-8'-azabicyclo[4.3.0]non-4'-en-8'-yl)-8-chloro-1-cyclopropyl-6-fluoro-1,4-dihydro-4-oxo-3-quinolinecarboxylic acid], the minimum inhibitory concentration (MIC) turned out to be 0.0039 µg/mL (≈ 0.00933 µM) in the test with E. coli Neumann; 0.0078 µg/mL (≈ 0.0187 µM) in test [1]; 0.015 µg/mL (≈ 0.0359 µM) in test [2]; 0.015 µg/mL (≈ 0.0359 µM) with Klebsiella sp. 8085; 0.015 µg/mL (≈ 0.0359 µM) against Micrococcus luteus 9341; 0.015 µg/mL (≈ 0.0359 µM) in the test with Morganella morg. 932. In addition, the MIC is 0.015 µg/mL (≈ 0.0359 µM) in the test with Providencia sp. 12012, 0.25 µg/mL (≈ 0.598 µM) in test [3], at most 0.0019 µg/mL in test [4] and 0.015 µg/mL (≈ 0.0359 µM) in [5].
For the molecule `N[C@@H]1CC=C[C@@H]2CN(c3c(F)cc4c(=O)c(C(=O)O)cn(C5CC5)c4c3F)C[C@@H]12` (relative stereo) [Example 4, (1'SR,2'RS,6'SR)-7-(2'-Amino-8'-azabicyclo[4.3.0]non-4'-en-8'-yl)-1-cyclopropyl-6,8-difluoro-1,4-hydro-4-oxo-3-quinolinecarboxylic acid], the MIC in the test with E. coli Neumann is 0.0078 µg/mL (≈ 0.0194 µM); in test [1], 0.15 µg/mL (≈ 0.374 µM); in test [2] it was 0.015 µg/mL (≈ 0.0374 µM); against Klebsiella sp. 8085, 0.015 µg/mL (≈ 0.0374 µM); against Micrococcus luteus 9341 it was 0.015 µg/mL (≈ 0.0374 µM); against Morganella morg. 932, 0.015 µg/mL (≈ 0.0374 µM). Further, the MIC was found to be 0.015 µg/mL (≈ 0.0374 µM) in the test with Providencia sp. 12012, 0.25 µg/mL (≈ 0.623 µM) in [3], 0.0039 µg/mL (≈ 0.00972 µM) in test [4] and 0.03 µg/mL (≈ 0.0747 µM) in [5].
As for `CC1COc2c(N3C[C@H]4[C@H](N)CC=C[C@@H]4C3)c(F)cc3c(=O)c(C(=O)O)cn1c23` (stereo partly drawn) [Example 14, (1'SR,2'RS,6'SR)-10-(2'-Amino-8'-azabicyclo [4.3.0]non-4'-en-8'-yl)-9-fluoro-2,3-dihydro-3-methyl-7-oxo-7H-pyrido[1,2,3-de][1,4]benzoxazine-6-carboxylic acid], the minimal inhibitory concentration (MIC) in the test with E. coli Neumann is 0.03 µg/mL (≈ 0.0751 µM); in test [1] it was 0.03 µg/mL (≈ 0.0751 µM); in test [2], 0.125 µg/mL (≈ 0.313 µM); against Klebsiella sp. 8085, 0.125 µg/mL (≈ 0.313 µM); in the test on Micrococcus luteus 9341, 0.125 µg/mL (≈ 0.313 µM); against Morganella morg. 932, 0.125 µg/mL (≈ 0.313 µM). The minimal inhibitory concentration (MIC) with Providencia sp. 12012 was determined as 0.125 µg/mL (≈ 0.313 µM); in test [3], 1 µg/mL (≈ 2.5 µM); in test [4], 0.0078 µg/mL (≈ 0.0195 µM); in test [5], 0.25 µg/mL (≈ 0.626 µM).
